Measurements reported in patent publication US7396837B2, “Antitumoral analogs of lamellarins” (Pharma Mar, S.A.U., priority 2002, dated 2008).
Read-outs that look alike come from different tables or passages of the source.

Experiments:
Format in all cases: cell-based
K-562 = assay: SRB colorimetric cell growth inhibition assay, K-562; conditions: for GI50: GI=growth inhibition, read-out: GI50 K-562
Procedure, shortened: (§1)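 After uninterrupted treatment, cultures are fixed and stained with sulforhodamine B, and absorbance reflects cell growth and viability. Each value represents the average of triplicate wells with SD.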

A-549 = assay: SRB colorimetric cell growth inhibition assay, A-549; conditions: for GI50: GI=growth inhibition, read-out: GI50 A-549
Procedure, shortened: as §1

SK-MEL-28 = assay: SRB colorimetric cell growth inhibition assay, SK-MEL-28; conditions: for GI50: GI=growth inhibition, read-out: GI50 MEL-28
Procedure, shortened: as §1

HT-29 = assay: SRB colorimetric cell growth inhibition assay, HT-29; conditions: for GI50: GI=growth inhibition, read-out: GI50 HT-29
Procedure, shortened: as §1

LoVo = assay: SRB colorimetric cell growth inhibition assay, LoVo; conditions: for GI50: GI=growth inhibition, read-out: GI50 LOVO
Procedure, shortened: as §1

LoVo-Dox = assay: SRB colorimetric cell growth inhibition assay, LoVo-Dox (MDR); conditions: for GI50: GI=growth inhibition, read-out: GI50 LOVO-DOX
Procedure, shortened: as §1

DU-145 = assay: SRB colorimetric cell growth inhibition assay, DU-145; conditions: for GI50 / IC (TGI): DU-145, DU-145; for GI50: GI=growth inhibition, read-out: GI50 DU-145; for IC (TGI): read-out: TGI DU-145
Procedure, shortened: as §1

LNCaP = assay: SRB colorimetric cell growth inhibition assay, LNCaP; conditions: for GI50: GI=growth inhibition, read-out: GI50 LN-caP
Procedure, shortened: as §1

SK-BR-3 = assay: SRB colorimetric cell growth inhibition assay, SK-BR-3; conditions: for GI50: GI=growth inhibition, read-out: GI50 SK-BR-3
Procedure, shortened: as §1

IGROV = assay: SRB colorimetric cell growth inhibition assay, IGROV; conditions: IGROV; for GI50: GI=growth inhibition, read-out: GI50 IGROV
Procedure, shortened: as §1

IGROV-ET = assay: SRB colorimetric cell growth inhibition assay, IGROV-ET (ET-743 resistant); conditions: for GI50: GI=growth inhibition, read-out: GI50 IGROV-ET
Procedure, shortened: as §1

HeLa = assay: SRB colorimetric cell growth inhibition assay, HeLa; conditions: for GI50: GI=growth inhibition, read-out: GI50 HELA
Procedure, shortened: as §1

HeLa-APL = assay: SRB colorimetric cell growth inhibition assay, HeLa-APL (aplidine resistant); conditions: for GI50: read-out: GI50 HELA-APL
Procedure, shortened: as §1

PANC-1 = assay: SRB colorimetric cell growth inhibition assay, PANC-1; conditions: for GI50: GI=growth inhibition, read-out: GI50 PANC-1
Procedure, shortened: as §1

`COc1cc(-c2c3c4cc(OC)c(OC(=O)[C@H](C)N)cc4oc(=O)c3n3ccc4c(OC(=O)[C@H](C)N)c(OC)c(OC)cc4c23)ccc1OC(=O)[C@H](C)N` [Compound 191] was tested, and the GI50 (K-562; K-562) was 129 nM, the CC50 (K-562; K-562, cell killing (cytotoxic effect), read-out: LC50 K-562) was 9490 nM and the “TGI K-562” value (K-562; K-562, total growth inhibition (cytostatic effect)) was 1.69E−06 Molar. The GI50 (A-549; A-549) was 573 nM, the CC50 (A-549; A-549, cell killing (cytotoxic effect), read-out: LC50 A-549) was 11700 nM and the “TGI A-549” value (A-549; A-549, total growth inhibition (cytostatic effect)) was 1.17E−05 Molar. The GI50 (SK-MEL-28; MEL-28) was 363 nM, the CC50 (SK-MEL-28; MEL-28, cell killing (cytotoxic effect), read-out: LC50 MEL-28) was 11700 nM and the “TGI MEL-28” value (SK-MEL-28; MEL-28, total growth inhibition (cytostatic effect)) was 1.17E−05 Molar. For the same compound, the GI50 (HT-29; HT-29) was 6180 nM, the CC50 (HT-29; HT-29, cell killing (cytotoxic effect), read-out: LC50 HT-29) was 11700 nM and the “TGI HT-29” value (HT-29; HT-29, total growth inhibition (cytostatic effect)) was 1.17E−05 Molar. For the same compound, the GI50 (LoVo; LOVO) was 513 nM, the CC50 (LoVo; LOVO, cell killing (cytotoxic effect), read-out: LC50 LOVO) was 7900 nM and the “TGI LOVO” value (LoVo; LOVO, total growth inhibition (cytostatic effect)) was 1.70E−06 Molar. For the same compound, the GI50 (LoVo-Dox; LOVO-DOX) was 785 nM, the CC50 (LoVo-Dox; LOVO-DOX, cell killing (cytotoxic effect), read-out: LC50 LOVO-DOX) was 11700 nM and the “TGI LOVO-DOX” value (LoVo-Dox; LOVO-DOX, total growth inhibition (cytostatic effect)) was 1.17E−05 Molar. It also gave a CC50 (DU-145; DU-145, cell killing (cytotoxic effect), read-out: LC50 DU-145) of 11700 nM, a GI50 (DU-145; Homo sapiens) of 62.1 nM and an IC (TGI) (DU-145; Homo sapiens, total growth inhibition (cytostatic effect)) of 228 nM. The GI50 (LNCaP; Homo sapiens, LNCaP, LN-caP) was 244 nM, the CC50 (LNCaP; LN-caP, cell killing (cytotoxic effect), read-out: LC50 LN-caP) was 5360 nM and the “TGI LN-caP” value (LNCaP; LN-caP, total growth inhibition (cytostatic effect)) was 1.48E−06 Molar. The GI50 (SK-BR-3; SK-BR-3) was 555 nM, the CC50 (SK-BR-3; SK-BR-3, cell killing (cytotoxic effect), read-out: LC50 SK-BR-3) was 11700 nM and the “TGI SK-BR-3” value (SK-BR-3; SK-BR-3, total growth inhibition (cytostatic effect)) was 3.66E−06 Molar. The GI50 (IGROV) was 458 nM, the CC50 (IGROV; cell killing (cytotoxic effect), read-out: LC50 IGROV) was 11700 nM and the “TGI IGROV” value (IGROV; total growth inhibition (cytostatic effect)) was 2.77E−06 Molar. The GI50 (IGROV-ET; IGROV-ET) was 588 nM, the CC50 (IGROV-ET; IGROV-ET, cell killing (cytotoxic effect), read-out: LC50 IGROV-ET) was 11700 nM and the “TGI IGROV-ET” value (IGROV-ET; IGROV-ET, total growth inhibition (cytostatic effect)) was 6.96E−06 Molar. The GI50 (HeLa; HELA) was 948 nM, the CC50 (HeLa; HELA, cell killing (cytotoxic effect), read-out: LC50 HELA) was 8630 nM and the “TGI HELA” value (HeLa; HELA, total growth inhibition (cytostatic effect)) was 2.96E−06 Molar. The GI50 (HeLa-APL; HELA-APL, GI=growth inhibition) was 940 nM, the CC50 (HeLa-APL; HELA-APL, cell killing (cytotoxic effect), read-out: LC50 HELA-APL) was 5960 nM and the “TGI HELA-APL” value (HeLa-APL; HELA-APL, total growth inhibition (cytostatic effect)) was 2.52E−06 Molar. The GI50 (PANC-1; PANC-1) was 1270 nM, the CC50 (PANC-1; PANC-1, cell killing (cytotoxic effect), read-out: LC50 PANC-1) was 11700 nM and the “TGI PANC-1” value (PANC-1; PANC-1, total growth inhibition (cytostatic effect)) was 9.66E−06 Molar.
`COc1cc(-c2c3n(c4c(=O)oc5cc(OC(=O)[C@@H](N)CO)c(OC)cc5c24)CCc2c-3cc(OC)c(OC)c2OC(=O)[C@@H](N)CO)ccc1OC(=O)[C@@H](N)CO` [Compound 59] showed a GI50 (K-562; Homo sapiens, K562, K-562) of 1640 nM, an IC (TGI) (K-562; Homo sapiens, K562, K-562, TGI=total growth inhibition (cytostatic effect), read-out: TGI K-562) of 3450 nM and a CC50 (K-562; Homo sapiens, K562, read-out: LC50 K-562, K-562, LC=cell killing (cytotoxic effect)) of 7270 nM. The GI50 (A-549; Homo sapiens, A549, A-549) was 1700 nM, the IC (TGI) (A-549; Homo sapiens, A549, A-549, TGI=total growth inhibition (cytostatic effect), read-out: TGI A-549) was 3290 nM and the CC50 (A-549; Homo sapiens, A549, read-out: LC50 A-549, A-549, LC=cell killing (cytotoxic effect)) was 6360 nM. For the same compound, the GI50 (SK-MEL-28; Homo sapiens, SK-MEL-28, MEL-28) was 1620 nM, the IC (TGI) (SK-MEL-28; Homo sapiens, SK-MEL-28, MEL-28, TGI=total growth inhibition (cytostatic effect), read-out: TGI MEL-28) was 3040 nM and the CC50 (SK-MEL-28; Homo sapiens, SK-MEL-28, read-out: LC50 MEL-28, MEL-28, LC=cell killing (cytotoxic effect)) was 5670 nM. The GI50 (HT-29; Homo sapiens, HT-29, HT-29) was 1970 nM, the IC (TGI) (HT-29; Homo sapiens, HT-29, HT-29, TGI=total growth inhibition (cytostatic effect), read-out: TGI HT-29) was 3700 nM and the CC50 (HT-29; Homo sapiens, HT-29, read-out: LC50 HT-29, HT-29, LC=cell killing (cytotoxic effect)) was 6980 nM. It also gave a CC50 (LoVo; Homo sapiens, LoVo, read-out: LC50 LOVO, LOVO, LC=cell killing (cytotoxic effect)) of 5670 nM, a GI50 (LoVo; Homo sapiens, LoVo) of 1130 nM and an IC (TGI) (LoVo; Homo sapiens, LoVo, TGI=total growth inhibition (cytostatic effect), read-out: TGI LOVO) of 2530 nM. For the same compound, the GI50 (LoVo-Dox; Homo sapiens, LOVO-DOX) was 528 nM, the IC (TGI) (LoVo-Dox; Homo sapiens, LOVO-DOX, TGI=total growth inhibition (cytostatic effect), read-out: TGI LOVO-DOX) was 1600 nM and the CC50 (LoVo-Dox; Homo sapiens, read-out: LC50 LOVO-DOX, LOVO-DOX, LC=cell killing (cytotoxic effect)) was 4560 nM. It also gave a GI50 (DU-145; Homo sapiens) of 1390 nM, an IC (TGI) (DU-145; Homo sapiens, TGI=total growth inhibition (cytostatic effect)) of 2600 nM and a CC50 (DU-145; Homo sapiens, DU-145, read-out: LC50 DU-145, DU-145, LC=cell killing (cytotoxic effect)) of 4860 nM. It also gave a GI50 (LNCaP; Homo sapiens, LNCaP, LN-caP) of 1370 nM, an IC (TGI) (LNCaP; Homo sapiens, LNCaP, LN-caP, TGI=total growth inhibition (cytostatic effect), read-out: TGI LN-caP) of 2630 nM and a CC50 (LNCaP; Homo sapiens, LNCaP, read-out: LC50 LN-caP, LN-caP, LC=cell killing (cytotoxic effect)) of 5060 nM. It also gave a GI50 (SK-BR-3; Homo sapiens, SK-BR-3, SK-BR-3) of 372 nM, an IC (TGI) (SK-BR-3; Homo sapiens, SK-BR-3, SK-BR-3, TGI=total growth inhibition (cytostatic effect), read-out: TGI SK-BR-3) of 1150 nM and a CC50 (SK-BR-3; Homo sapiens, SK-BR-3, read-out: LC50 SK-BR-3, SK-BR-3, LC=cell killing (cytotoxic effect)) of 4110 nM. It also gave a CC50 (IGROV; Homo sapiens, read-out: LC50 IGROV, IGROV, LC=cell killing (cytotoxic effect)) of 7670 nM, a GI50 (IGROV; Homo sapiens) of 899 nM and an IC (TGI) (IGROV; Homo sapiens, TGI=total growth inhibition (cytostatic effect), read-out: TGI IGROV) of 2630 nM. It also gave a GI50 (IGROV-ET; Homo sapiens, IGROV-ET) of 632 nM, an IC (TGI) (IGROV-ET; Homo sapiens, IGROV-ET, TGI=total growth inhibition (cytostatic effect), read-out: TGI IGROV-ET) of 2040 nM and a CC50 (IGROV-ET; Homo sapiens, read-out: LC50 IGROV-ET, IGROV-ET, LC=cell killing (cytotoxic effect)) of 5980 nM. For the same compound, the CC50 (HeLa; Homo sapiens, HeLa, read-out: LC50 HELA, HELA, LC=cell killing (cytotoxic effect)) was 6440 nM, the IC (TGI) (HeLa; Homo sapiens, HeLa, read-out: TGI HELA) was 2980 nM and the GI50 (HeLa; Homo sapiens, HeLa) was 1370 nM. It also gave a GI50 (HeLa-APL; Homo sapiens) of 1880 nM, a CC50 (HeLa-APL; Homo sapiens, read-out: LC50 HELA-APL, HELA-APL, LC=cell killing (cytotoxic effect)) of 8120 nM and an IC (TGI) (HeLa-APL; Homo sapiens, read-out: TGI HELA-APL) of 3900 nM. For the same compound, the GI50 (PANC-1; Homo sapiens, PANC-1, PANC-1) was 1100 nM, the IC (TGI) (PANC-1; Homo sapiens, PANC-1, PANC-1, TGI=total growth inhibition (cytostatic effect), read-out: TGI PANC-1) was 3480 nM and the CC50 (PANC-1; Homo sapiens, PANC-1, read-out: LC50 PANC-1, PANC-1, LC=cell killing (cytotoxic effect)) was 8810 nM.
